# Literature values as cited in patent US20240190825A1, “PROCESS FOR PREPARATION OF CABOZANTINIB” (BIOCON LIMITED, priority 2021, published 2024).
smiles,measurement,setting,value
COc1cc2nccc(Oc3ccc(NC(=O)C4(C(=O)Nc5ccc(F)cc5)CC4)cc3)c2cc1OC.O=C(O)C[C@H](O)C(=O)O [crystalline form M4],solubility of crystal form,as disclosed in WO2020057622 A1 on WO2015177758 A1 forms,low
"COc1cc2nccc(Oc3ccc(NC(=O)C4(C(=O)Nc5ccc(F)cc5)CC4)cc3)c2cc1OC.O=C(O)C[C@H](O)C(=O)O [Cabozantinib (S)-malate salt, N-(4-(6,7-dimethoxyquinolin-4-yloxy)phenyl)-N′-(4fluorophenyl)cyclopropane-1,1-dicarboxamide, (2S)-hydroxybutanedioate]",solubility in aqueous media,aqueous media,practically insoluble
"COc1cc2nccc(Oc3ccc(NC(=O)C4(C(=O)Nc5ccc(F)cc5)CC4)cc3)c2cc1OC [Cabozantinib, N-(4-(6,7-dimethoxyquinolin-4-yloxy)phenyl)-N′-(4Fluorophenyl) cyclopropane-1,1-dicarboxamide]",water solubility,water,poorly water-soluble
